Measurements: patent US20070078127A1, “Control of arthropods in animals” (AVENTIS CROPSCIENCE S.A., priority 1999, published 2007)

What was measured:
[1] = test system: cat fleas (Ctenocephalides felis); assay: control of flea on dog; assay type: in vivo; details: dogs, 10 mg/kg, 30 mg/mL in 1:1 dimethyl sulfoxide/corn oil; counts versus placebo at 1, 9, 16, 23, 30 days; satisfactory in any of the three areas, for a period ranging from eight to thirty days
Text: (§1) Cats are only infested with fleas.

[2] = test system: ticks (Rhipicephalus sanguineus); assay: control of tick on dog; assay type: in vivo; details: dogs, 10 mg/kg, 30 mg/mL in 1:1 dimethyl sulfoxide/corn oil; counts versus placebo at 1, 9, 16, 23, 30 days; satisfactory in any of the three areas, for a period ranging from eight to thirty days
Text: as §1

[3] = test system: cat fleas (Ctenocephalides felis); assay: control of flea on cat; assay type: in vivo; details: cats, 20 mg/kg, 30 mg/mL in 1:1 dimethyl sulfoxide/corn oil; counts versus placebo at 1, 9, 16, 23, 30 days; satisfactory in any of the three areas, for a period ranging from eight to thirty days
Text: as §1

[4] = side-effects in treated dogs and cats; details: dogs 10 mg/kg, cats 20 mg/kg; period ranging from eight to thirty days
Procedure: The compounds 1-(2,6-dichloro-4-trifluoromethylphenyl)-3-cyano-4-trifluromethylthio-5-hydroxypyrazole, 1-(2,6-dichloro-4-trifluoromethylphenyl)-3-cyano-4-trifluoromethylsulfinyl-5-hydroxypyrazole and 1-(2,6-dichloro-4-trifluoromethylphenyl)-3-cyano-4-trifluoromethylsulfonyl-5-hydroxypyrazole are formulated as 30 mg/mL formulations in a 1:1 volume/volume solution of dimethyl sulfoxide and corn oil. Using this formulation, mixed breed dogs and cats are treated at a rate of 10 mg of the compound per kg (mg/kg)of body weight of the dog and 20 mg/kg of the cat treated. The animals are fasted for at least 8 hours prior to treatment, fed half of the daily ration immediately prior to treatment, then allowed access to the remainder of the daily ration immediately following treatment.
All dogs are infested with cat fleas (Ctenocephalides felis) and with ticks (Rhipicephalus sanguineus) 1 day prior to administration of the compound. Cats are only infested with fleas. […] At 1, 9, 16, 23 and 30 days after treatment the control of fleas and ticks in treated dogs and cats is determined versus a group of infested dogs and cats which receive a placebo consisting of a 1:1 volume/volume solution of dimethyl sulfoxide and corn oil. To determine the efficacies of the compounds, the arthropods are combed from the animnals and counted.

Compound | control of flea on dog [1] | control of tick on dog [2] | control of flea on cat [3] | side-effect [4]
CC(C)(C)C(=O)Oc1c(SC(F)(F)F)c(C#N)nn1-c1c(Cl)cc(C(F)(F)F)cc1Cl [Compound 3-10, 1-(2,6-dichloro-4-trifluoromethylphenyl)-3-cyano-4-trifluoromethylsulfenyl-5-trimethylacetoxypyrazole] | Satisfactory results | Satisfactory results | Satisfactory results | 
N#Cc1nn(-c2c(Cl)cc(C(F)(F)F)cc2Cl)c(O)c1SC(F)(F)Cl [Compound 1-9, 1-(2,6-dichloro-4-trifluoromethylphenyl)-3-cyano-4-chlorodifluoromethylsulfenyl-5-hydroxypyrazole] | Satisfactory results | Satisfactory results | Satisfactory results | without any significant side-effect
N#Cc1nn(-c2c(Cl)cc(C(F)(F)F)cc2Cl)c(O)c1[S+]([O-])C(F)(F)F (centres unmarked) [Compound 1-3, 1-(2,6-dichloro-4-trifluoromethylphenyl)-3-cyano-4-trifluoromethylsulfinyl-5-hydroxypyrazole] | Satisfactory results | Satisfactory results | Satisfactory results | 
CN(C)C(=O)Oc1c(S(=O)(=O)C(F)(F)F)c(C#N)nn1-c1c(Cl)cc(C(F)(F)F)cc1Cl [Compound 19-1, 1-(2,6-dichloro-4-trifluorometylphenyl) -3-cyano-4-trifluormethylsulfonyl-5-N,N-dimethylcarbamyloxypyrazole] | Satisfactory results | Satisfactory results | Satisfactory results | without any significant side-effect
CCOc1c(SC(F)(F)F)c(C#N)nn1-c1c(Cl)cc(C(F)(F)F)cc1Cl [Compound 3-1, 1-(2,6-dichloro-4-trifluoromethylphenyl)-3-cyano-4-trifluoromethylsulfenyl-5-ethoxypyrazole] | Satisfactory results | Satisfactory results | Satisfactory results | 
N#Cc1nn(-c2c(Cl)cc(C(F)(F)F)cc2Cl)c(O)c1SC(F)(F)F [Compound 1-1, 1-(2,6-dichloro-4-trifluoromethylphenyl)-3-cyano-4-trifluoromethylsulfenyl-5-hydroxypyrazole] | Satisfactory results | Satisfactory results | Satisfactory results | 
N#Cc1nn(-c2c(Cl)cc(C(F)(F)F)cc2Cl)c(O)c1S(=O)(=O)C(F)(F)F [Compound 1-5, 1-(2,6-dichloro-4-trifluoromethylphenyl)-3-cyano-4-trifluoromethylsulfonyl-5-hydroxypyrazole] | Satisfactory results | Satisfactory results | Satisfactory results | 
